Where two headings read alike, the source gives them in different places.
Tests used:
Insulin Receptor = target: T1, Insulin Receptor (Homo sapiens, UniProt P06213); test: Cellular Insulin Receptor ELISA; assay type: cell-based; details: H25 cells, 100 nM insulin; read-out: ELISA DATA: IR
T1 construct: expressed in transfected cells; host or cells: H25 (NIH3T3 line overexpressing Insulin Receptor)
Procedure: Cellular Insulin Receptor ELISA (Version I)
The following protocol describes the cell line, reagents and procedures used to measure phosphotyrosine level on Insulin Receptor, which indicates Insulin Receptor tyrosine kinase activity.
MATERIALS AND REAGENTS (1). The cell line used in this assay is H25 (ATCC #CRL 8017), an NIH3T3 cell line which overexpresses Insulin Receptor.
(2). H25 cells are grown in an incubator with 5% CO2 at 37° C. The growth media is DMEM+10% FBS (heat inactivated)+2 mM L-Glutamine.
(3). For ELISA plate coating, the monoclonal anti-IR antibody named BBE is used. Antibodies are purified by the Enzymology Lab, SUGEN, Inc.
(1). The cells, grown in tissue culture dish (10 cm, Corning 25020-100) to 80-90% confluence, are harvested with Trypsin-EDTA (0.25%, 0.5 ml/D-100, GIBCO).
(2). Resuspend the cells in fresh DMEM+10% FBS+2 mM L-Glutamine, and transfer to 96-well tissue culture plate (Coming, 25806-96) at 20,000 cells/well (100 ul/well). Incubate for 1 day then replace medium to 0.01% serum medium (90/ul) and incubate in 5% CO2 and 37° C. overnight.
(1). Coat the ELISA plate (Corning 25805-96) with Anti-IR Antibody at 0.5 ug/well in 100 ul PBS at least 2 hours.
(2). Remove the coating solution, and replace with 100 ul Blocking Buffer, and shake for 30 minutes. Remove the blocking buffer and wash the plate just before adding lysate.
(1). The drugs are tested in serum-free condition.
(2). Dilute drug stock (in 100% DMSO) 1:10 with DMEM in 96-well poly-propylene plate, and transfer 10 ul/well of this solution to the cells to achieve final drug dilution 1:100, and final DMSO concentration of 1.0%. Incubate the cells in 5% CO2 at 37° C. for 2 hours.
(3). Prepare fresh cell lysis buffer (HNTG*) HNTG 2 ml EDTA 0.1 ml Na3VO4 0.1 ml Na4P2O7 0.1 ml H20 7.3 ml HNTG* 10 ml.
(4). After drug incubation for two hours, transfer 10 ul/well of 1 μM Insulin in PBS to the cells (Final Conc=100 nM), and incubate at 5% CO2 at 37° C. for 10 minutes.
(5). Remove media and add 100 ul/well HNTG* and shake for 10 minutes. Look at cells under microscope to see if they are adequately lysed.
(6). Use a 12-channel pipette to scrape the cells from the plate, and homogenize the lysate by repeat aspiration and dispense. Transfer all the lysate to the antibody coated ELISA plate [V.2.(2)], and shake for 1 hour.
(7). Remove the lysate, wash the plate, transfer anti-pTyr (1:3,000 with TBST) 100 ul/well, and shake for 30 minutes.
(8). Remove anti-pTyr, wash the plate, transfer detection antibody (1:3,000 with TBST) 100 ul/well, and shake for 30 minutes.
(9). Remove detection antibody, wash the plate, and transfer fresh ABTS/H2O2 (1.2 ul H2O2 to 10 ml ABTS) 100 ul/well to the plate to start color development.

3T3/IGF-1R cells = test: IGF-1 Receptor Growth Assay (3T3/IGF-1R); assay type: cell-based
Procedure: IGF-1 Receptor Growth Assay
3T3/IGF-1 R (10% FBS/2 mM glutamine/DMEM)
Cell Plating--Trypsinize and count 3T3/IGF-1R and NIH 3T3 c7 cells. Dilute in growth media to 2000 cells/200 μl and seed flat bottom 96-well plates with 200 μl/well, one plate for two compounds for each cell line.
Compound preparation--Add DMSO to each compound to make 100 mM stock solutions.
Aliquot each compound to 3-4 sterile screw cap tubes and store at -20° C. After thawing, make sure the compound has gone completely back into solution. Throw away after 3 freeze/thaws.
3T3/IGF-1R cells--For each 96-well plate, make 15 ml of 10 nM IGF-1/0.5% FBS/2 mM glutamine/DMEM (30 μl of 5 μM IGF-1/15 ml).
Aliquot 1.5 ml 10 nM IGF-1/0.5% FBS to a sterile tube for each compound to be tested (the first time a compound is tested, use a 15 ml tube in case it is necessary to add extra medium to get it into solution).
Add 3 μl of 100 mM stock of each compound to a tube so 200 μM final. Shake or vortex until it goes into solution. If it is necessary to add additional medium, note the final concentration.
For the DMSO control, prepare 0.5 ml/plate of 0.2% DMSO/10 nM IGF-1/0.5% FBS (2 μl DMSO/ml).
For every two compounds, aliquot 130 μl 10 nM IGF-1/0.5% FBS to wells in columns 2-11 of a 96-well round bottom plate.
Add 260 μl of each compound to four wells in column 12.
Do 2-fold dilutions (130 μl) from columns 12 to 3 on each plate (column 2 will be for the untreated control), mixing thoroughly.
Remove medium from 3T3/IGF-1 R cells, one plate at a time.
Transfer 120 μl from each well on a compound dilution plate to the corresponding well of cells.
Add 120 μl 0.2% DMSO/10 nM IGF-1/0.5% FBS to four wells in column 1.
Add 120 μl 0.5% FBS (without IGF-1) to other four wells in column 1 for negative control.
Refeed--Repeat steps above, adding exactly the same IGF-1 and compound concentration to each well as before.
Analysis of cells--Look at wells with the highest concentrations for each compound to make sure it has not precipitated.
Detection--Follow the steps for fixing and staining described in the SOP for SRB Assays.
Data analysis--Find averages and standard deviations for each set of four OD's.
Using wells in column 2 (treated with IGF-1 but not compound) as 100%, calculate percent of control for each concentration of compound.
Determine the fold difference between the IGF-1-treated and untreated cells. It should be 2-3-fold.
Determine the percent of control for 0.2% DMSO.
Use a curve fit method to graph percent of control vs. log(molar concentration) and determine the IC50.

[1] = read-out: Growth Data: 3T3/IGF-1R-0.5% FBS
[2] = read-out: Growth Data: 3T3/IGF-1R-10% FBS

T1 sequence (P06213 763-1382 limits assumed, species assumed): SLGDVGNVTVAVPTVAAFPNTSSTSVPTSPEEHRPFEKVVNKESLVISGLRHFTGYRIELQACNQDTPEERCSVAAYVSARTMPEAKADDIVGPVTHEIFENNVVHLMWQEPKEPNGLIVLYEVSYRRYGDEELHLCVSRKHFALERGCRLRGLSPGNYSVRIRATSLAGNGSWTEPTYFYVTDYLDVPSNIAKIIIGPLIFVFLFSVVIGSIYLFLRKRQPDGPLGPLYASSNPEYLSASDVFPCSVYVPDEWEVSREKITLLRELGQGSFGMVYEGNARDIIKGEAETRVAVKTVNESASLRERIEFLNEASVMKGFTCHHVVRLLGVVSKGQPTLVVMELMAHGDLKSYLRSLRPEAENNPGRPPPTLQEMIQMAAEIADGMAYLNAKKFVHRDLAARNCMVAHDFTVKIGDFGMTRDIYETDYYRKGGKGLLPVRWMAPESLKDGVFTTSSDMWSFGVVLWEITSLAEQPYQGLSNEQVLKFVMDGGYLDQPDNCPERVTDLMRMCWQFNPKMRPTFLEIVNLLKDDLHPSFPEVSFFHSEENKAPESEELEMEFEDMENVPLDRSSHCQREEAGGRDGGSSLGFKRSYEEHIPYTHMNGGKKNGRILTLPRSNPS
T1 sequence (P06213 28-758 partner limits assumed, species assumed): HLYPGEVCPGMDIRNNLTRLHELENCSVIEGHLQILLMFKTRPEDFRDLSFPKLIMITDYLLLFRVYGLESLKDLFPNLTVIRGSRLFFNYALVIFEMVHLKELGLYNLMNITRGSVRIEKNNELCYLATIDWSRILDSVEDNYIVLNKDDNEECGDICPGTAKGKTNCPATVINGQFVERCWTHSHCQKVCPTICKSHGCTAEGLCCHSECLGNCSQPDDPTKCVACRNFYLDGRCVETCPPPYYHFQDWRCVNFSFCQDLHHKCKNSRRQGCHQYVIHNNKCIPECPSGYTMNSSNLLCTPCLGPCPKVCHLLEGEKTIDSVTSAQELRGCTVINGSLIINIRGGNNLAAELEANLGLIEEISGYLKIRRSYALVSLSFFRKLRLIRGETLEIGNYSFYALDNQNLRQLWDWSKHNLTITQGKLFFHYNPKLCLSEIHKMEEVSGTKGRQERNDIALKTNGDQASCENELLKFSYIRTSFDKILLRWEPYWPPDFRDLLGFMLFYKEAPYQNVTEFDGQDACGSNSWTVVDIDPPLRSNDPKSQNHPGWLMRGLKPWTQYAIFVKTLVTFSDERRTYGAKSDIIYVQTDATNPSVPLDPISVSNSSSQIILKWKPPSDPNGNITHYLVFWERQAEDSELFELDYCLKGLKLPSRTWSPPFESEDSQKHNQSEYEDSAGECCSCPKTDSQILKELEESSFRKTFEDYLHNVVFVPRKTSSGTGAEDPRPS

| IC50 (Insulin Receptor) | Structure (SMILES) | IC50 (3T3/IGF-1R cells; [1]) | IC50 (3T3/IGF-1R cells; [2]) |
| --- | --- | --- | --- |
| 27 µM | CC(C)c1cc(/C=C(\C#N)S(=O)(=O)/C(C#N)=C/c2cc(C(C)C)c(O)c(C(C)C)c2)cc(C(C)C)c1O [Compound 745] | – | – |
| 8.8 µM | CC(C)c1cc(/C=C(\C#N)S(=O)(=O)NCc2ccccc2)cc(C(C)C)c1O [Compound 732] | 9.2 µM | 79 µM |
| 51 µM | N#C/C(=C\c1ccc(O)cc1Cl)S(=O)(=O)NCCCc1ccccc1 [Compound 734] | – | – |
| > 100 µM | N#C/C(=C\c1ccc(O)cc1Cl)S(=O)(=O)NCc1ccccc1 [Compound 733] | – | – |
| 15.1 µM | CC(C)c1cc(/C=C(\C#N)S(=O)(=O)Cc2cccc(C(F)(F)F)c2)cc(C(C)C)c1O [Compound 736] | 14.7 µM | 74 µM |
| 9.2 µM | CC(C)c1cc(/C=C(\C#N)S(=O)(=O)c2ccc(F)cc2)cc(C(C)C)c1O [Compound 741, (E)-3-(3,5-Diisopropyl-4-hydroxyphenyl)-2-(4-fluorophenylsulfonyl)acrylonitrile] | 35 µM | 91 µM |
| 12 µM | CC(C)c1cc(/C=C(\C#N)S(=O)(=O)c2ccccc2)cc(C(C)C)c1O [Compound 731] | 25 µM | 92 µM |

Reference: patent publication US5891917A, “Certain acrylonitrile-sulfonamide derivatives” (Sugen, Inc., priority 1997, dated 1999)
